Results taken from patent US20060240095A1, “Pharmaceutical composition comprising a combination of metformin and a statin” (priority 2003, published 2006).
Like-named read-outs stand apart in the source and are kept apart here.

Tests used:
[1] = cited from earlier work
[2] = cited from earlier work; remark: listed apart in the source
[3] = test system: Zucker obese (fa/fa) rats; conditions: serum, lovastatin 1 mg/kg/day and/or metformin 50 mg/kg twice a day p.o.
[4] = test system: C57BL/Ks J Rj-db (db/db) mice; assay: Serum biomarkers in male db/db mice, simvastatin, metformin and combination per os for 5 days; format: in vivo, mouse; conditions: oral once daily
Protocol: Male 12 weeks old C57BL/Ks J Rj-db (db/db) mice (Janvier, France), weighing in the target range of 30 to 50 g, were used in the study. They were housed 5 per cage in a temperature (19.5-24.5° C.) and relative humidity (45-65%) controlled room with a 12-h light/dark cycle, with ad libitum access to filtered tap-water and irradiated pelleted laboratory chow (ref. A04, SAFE, France) throughout the study. After acclimatization, they were randomized into groups of 10 according to homogeneous glycaemia:
Group 2: Metformin 150 mg/kg
The mice were given the treatment orally once daily for 5 consecutive days at constant time.

[5] = test system: ZUCKER fa/fa rats; assay: Serum biomarkers in Zucker obese (fa/fa) rats, simvastatin, metformin and combination per os for 5 days; conditions: oral
[6] = pH of 7.0; cited from earlier work
[7] = water (distilled water for atorvastatin), in words
[8] = T0 (three days before beginning of treatment)
[9] = T5 (five days after beginning of treatment)
[10] = T0 (three days before treatment), metformin 150 mg/kg and/or simvastatin 30 mg/kg
[11] = T5 (five days after beginning of treatment), metformin 150 mg/kg and/or simvastatin 30 mg/kg
[12] = T0 (three days before treatment), simvastatin 0.5 mg/kg and/or metformin 50 mg/kg twice a day
[13] = T5 (five days after beginning of treatment), simvastatin 0.5 mg/kg and/or metformin 50 mg/kg twice a day
[14] = T0 (three days before treatment), simvastatin 300 mg/kg alone or with metformin 150 mg/kg
[15] = T0 (three days before treatment), simvastatin alone or with metformin 150 mg/kg
[16] = T5 (five days after beginning of treatment), simvastatin 300 mg/kg alone or with metformin 150 mg/kg
[17] = T5 (five days after beginning of treatment), simvastatin alone or with metformin 150 mg/kg
[18] = T0 (three days before treatment), simvastatin 1 mg/kg alone or with metformin 50 mg/kg twice a day
[19] = T5 (five days after beginning of treatment), simvastatin 1 mg/kg alone or with metformin 50 mg/kg twice a day

## COCc1c(C(C)C)nc(C(C)C)c(/C=C/[C@@H](O)C[C@@H](O)CC(=O)O)c1-c1ccc(F)cc1 [Cerivastatin]
[1]; [7]
  solubility in water: soluble
[2]; oral administration with food
  effect of food on absorption: not sensitive to a food effect

## CC(C)n1c(/C=C/C(O)CC(O)CC(=O)O)c(-c2ccc(F)cc2)c2ccccc21 (stereo not drawn) [Fluvastatin]
[1]; [7]
  solubility in water: soluble
[2]; following oral administration
  time to peak concentrations: less than 1 hour

## CC[C@H](C)C(=O)O[C@H]1C[C@@H](C)C=C2C=C[C@H](C)[C@H](CC[C@@H]3C[C@@H](O)CC(=O)O3)[C@H]21 [Lovastatin]
[3]; [8]
  Glucose: 7.88 mM
  HDL C: 2.00 mM
  Insulin: 0.35 nM
  Total Cholesterol: 2.38 mM
  Triglycerides: 4.18 mM
[3]; [9]
  Glucose: 8.21 mM
  HDL C: 2.16 mM
  Insulin: 0.39 nM
  Total Cholesterol: 2.54 mM
  Triglycerides: 4.79 mM
[1]; [7]
  solubility in water: insoluble

## CN(C)C(=N)N=C(N)N [Metformin]
[3]; [8]
  Glucose: 8.27 mM
  HDL C: 2.08 mM
  Insulin: 0.34 nM
  Total Cholesterol: 2.55 mM
  Triglycerides: 4.08 mM
[3]; [9]
  Glucose: 7.73 mM
  HDL C: 2.25 mM
  Insulin: 0.38 nM
  Total Cholesterol: 2.72 mM
  Triglycerides: 5.17 mM
[4]; [10]
  Glucose: 37.00 mM
  Insulin: 4.60 nM
  NEFA: 0.654 mM
  Total Cholesterol: 3.07 mM
  Triglycerides: 1.30 mM
[4]; [11]
  Glucose: 23.03 mM
  Insulin: 2.82 nM
  NEFA: 0.798 mM
  Total Cholesterol: 3.63 mM
  Triglycerides: 1.34 mM
[5]; [12]
  Glucose: 6.69 mM
  HDL C: 2.30 mM
  Insulin: 0.63 nM
  Total Cholesterol: 2.47 mM
  Triglycerides: 4.18 mM
[5]; [13]
  Glucose: 9.23 mM
  HDL C: 2.16 mM
  Insulin: 0.71 nM
  Total Cholesterol: 2.32 mM
  Triglycerides: 5.12 mM

## CC[C@H](C)C(=O)O[C@H]1C[C@H](O)C=C2C=C[C@H](C)[C@H](CC[C@@H](O)C[C@@H](O)CC(=O)O)[C@H]21 [Pravastatin]
[1]; methanol and water
  solubility in water: > 300 mg/mL
[6]
  partition coefficient (octanol/water): 0.59

## CCC(C)(C)C(=O)O[C@H]1C[C@@H](C)C=C2C=C[C@H](C)[C@H](CC[C@@H]3C[C@@H](O)CC(=O)O3)[C@H]21 [Simvastatin]
[4]; [10]
  Glucose: 36.27 mM
  Insulin: 4.60 nM
  NEFA: 0.646 mM
  Total Cholesterol: 2.96 mM
  Triglycerides: 1.34 mM
[4]; [14]
  Glucose: 36.91 mM
  Total Cholesterol: 2.95 mM
[4]; [15]
  Insulin: 4.86 nM
  NEFA: 0.639 mM
  Triglycerides: 1.44 mM
[4]; [11]
  Glucose: 25.95 mM
  Insulin: 2.74 nM
  NEFA: 0.897 mM
  Total Cholesterol: 3.33 mM
  Triglycerides: 1.49 mM
[4]; [16]
  Glucose: 21.18 mM
  Total Cholesterol: 2.87 mM
[4]; [17]
  Insulin: 2.37 nM
  NEFA: 0.785 mM
  Triglycerides: 0.78 mM
[5]; [12]
  Glucose: 6.63 mM
  HDL C: 2.32 mM
  Insulin: 0.55 nM
  Total Cholesterol: 2.46 mM
  Triglycerides: 4.61 mM
[5]; [18]
  Glucose: 7.08 mM
  HDL C: 2.34 mM
  Insulin: 0.63 nM
  Total Cholesterol: 2.48 mM
  Triglycerides: 4.67 mM
[5]; [13]
  Glucose: 9.44 mM
  HDL C: 2.32 mM
  Insulin: 0.76 nM
  Total Cholesterol: 2.46 mM
  Triglycerides: 5.23 mM
[5]; [19]
  Glucose: 8.35 mM
  HDL C: 2.43 mM
  Insulin: 0.67 nM
  Total Cholesterol: 2.60 mM
  Triglycerides: 5.89 mM
